Columns and labels:
[1] = test system: KRas Q61H mutant; assay: Ras GTP Binding Domain Inhibition Assay (Ras Superfamily Assay); details: 20 μM compound; for KRas Q61H mutant + SOS: % inh.: with SOS; for KRas Q61H mutant: % inh.: without SOS
Method in brief: (§1)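 His-tagged GTPases immobilised on nickel-coated plates, pre-incubated with compound (20 μM single point, or serial dilution for IC50) 3 h at room temperature, with or without 10-30 μg/mL Sos (residues 556-1049) in the final hour. Bound Cy3- or Cy5-GTP (100 nM, 45 min) measured by fluorescence after washing.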

[2] = molecular target: T1, Rho-A (Homo sapiens, UniProt P61586); assay: as above; details: read-out: Rho-A: % inh..
T1 construct: made in house
T1 sequence (P61586 whole entry): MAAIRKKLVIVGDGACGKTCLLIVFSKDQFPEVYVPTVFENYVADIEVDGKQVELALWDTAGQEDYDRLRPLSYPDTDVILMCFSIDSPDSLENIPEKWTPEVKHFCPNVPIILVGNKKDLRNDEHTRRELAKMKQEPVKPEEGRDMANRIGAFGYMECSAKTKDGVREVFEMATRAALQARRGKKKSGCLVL
Method in brief: as §1

[3] = test system: KRas G12C mutant; assay: as above; details: 20 μM compound; for KRas G12C mutant + SOS: % inh.: with SOS; for KRas G12C mutant: % inh.: without SOS
Method in brief: as §1

[4] = test system: JNK phosphorylation; assay: JNK Activation Assay (western blot), Panc-1; assay type: cell-based, human; details: at 10 μM, Panc-1 pancreatic cancer cell line; starred symbols = activation
Method in brief: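 KRas G12C Panc-1 cells treated 6 h at 37 °C with compound at 10 μM (0.3% DMSO), or serial dilutions for IC50. In Method 1 cells were serum-starved overnight (0.5% FBS) then stimulated with 1.5 ng/ml EGF for 15 min; Method 2 used 10% FBS without stimulation. Phospho-JNK (Thr183/Tyr185) measured by western blot.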

Row | Structure (SMILES) | KRas Q61H mutant + SOS: % inh. [1] | KRas Q61H mutant: % inh. [1] | inhibition at 20 µM [2] [%] | KRas G12C mutant + SOS: % inh. [3] | KRas G12C mutant: % inh. [3] | % inh of JNK in Panc-1 [4]
1 | COCCO[C@H]1C[C@H](Nc2nc(-c3nccn3C)nn3cc(-c4ccn(C(C)C)n4)c(C)c23)C1 [Compound 92, 6-(1-Isopropyl-1H-pyrazol-3-yl)-N-((1r,3r)-3-(2-methoxyethoxy)cyclobutyl)-5-methyl-2-(1-methyl-1H-imidazol-2-yl)pyrrolo[2,1-f][1,2,4]triazin-4-amine] | A (A = 1-25% inhibition) | 0 (0 = 0% inhibition) | 1 to 25 | 0 (0 = 0% inhibition) | 0 (0 = 0% inhibition) | 
2 | COC[C@@H]1CC[C@@H]1CNc1nc(-c2nccn2C)nn2cc(-c3ccn(C(C)C)n3)c(-c3ccccc3)c12 (racemic) [Compound 20, rac 6-(1-Isopropyl-1H-pyrazol-3-yl)-N-(((1S,2R)-2-(methoxymethyl)cyclobutyl)methyl)-2-(1-methyl-1H-imidazol-2-yl)-5-phenylpyrrolo[2,1-f][1,2,4]triazin-4-amine] | 0 (0 = 0% inhibition) | 0 (0 = 0% inhibition) | 1 to 25 | 0 (0 = 0% inhibition) | A (A = 1-25% inhibition) | H* (H* ≥ 100% activation)
3 | COC[C@@H]1CC[C@@H]1CNc1nc(-c2nccn2C)nn2cc(-c3ccn(C(C)C)n3)c(C)c12 (racemic) [Compound 3, rac 6-(1-Isopropyl-1H-pyrazol-3-yl)-N-(((1S,2R)-2-(methoxymethyl)cyclobutyl)methyl)-5-methyl-2-(1-methyl-1H-imidazol-2-yl)pyrrolo[2,1-f][1,2,4]triazin-4-amine] | 0 (0 = 0% inhibition) | 0 (0 = 0% inhibition) | 0 | 0 (0 = 0% inhibition) | 0 (0 = 0% inhibition) | H* (H* ≥ 100% activation)
4 | COc1cccc(Nc2nc(-c3nccn3C)nn3cc(-c4ccn(C(C)C)n4)c(C)c23)n1 [Compound 7, 6-(1-Isopropyl-1H-pyrazol-3-yl)-N-(6-methoxypyridin-2-yl)-5-methyl-2-(1-methyl-1H-imidazol-2-yl)pyrrolo[2,1-f][1,2,4]triazin-4-amine] | A (A = 1-25% inhibition) | B (B = 26-49% inhibition) | 0 | A (A = 1-25% inhibition) | 0 (0 = 0% inhibition) | H* (H* ≥ 100% activation)
5 | COC1CCCN(c2nc(-c3nccn3C)nn3cc(-c4ccn(C(C)C)n4)c(-c4ccccc4)c23)C1 (racemic) [Compound 21, rac 6-(1-Isopropyl-1H-pyrazol-3-yl)-4-(3-methoxypiperidin-1-yl)-2-(1-methyl-1H-imidazol-2-yl)-5-phenylpyrrolo[2,1-f][1,2,4]triazine] | A (A = 1-25% inhibition) | 0 (0 = 0% inhibition) | 1 to 25 | 0 (0 = 0% inhibition) | 0 (0 = 0% inhibition) | H* (H* ≥ 100% activation)
6 | CO[C@H]1CC[C@@H](Nc2nc(-c3nccn3C)nn3cc(-c4ccn(C(C)C)n4)c(C)c23)C1 (racemic) [Compound 1, rac 6-(1-Isopropyl-1H-pyrazol-3-yl)-N-((1R,3S)-3-methoxycyclopentyl)-5-methyl-2-(1-methyl-1H-imidazol-2-yl)pyrrolo[2,1-f][1,2,4]triazin-4-amine] | 0 (0 = 0% inhibition) | 0 (0 = 0% inhibition) | 0 | 0 (0 = 0% inhibition) | 0 (0 = 0% inhibition) | F* (F* = 31-74% activation)
7 | CC(C)n1ccc(-c2cn3nc(-c4nccn4C)nc(O)c3c2-c2ccccc2)n1 [Compound 17, 6-(1-Isopropyl-1H-pyrazol-3-yl)-2-(1-methyl-1H-imidazol-2-yl)-5-phenylpyrrolo[2,1-f][1,2,4]triazin-4-ol] | C (C = 50-75% inhibition) | C (C = 50-75% inhibition) | 76 to 100 | C (C = 50-75% inhibition) | C (C = 50-75% inhibition) | 0 (0 = 0% inhibition)
8 | COc1cc(Nc2nc(-c3nccn3C)nn3cc(-c4ccn(C(C)C)n4)c(-c4ccccc4)c23)ncn1 [Compound 22, 6-(1-Isopropyl-1H-pyrazol-3-yl)-N-(6-methoxypyrimidin-4-yl)-2-(1-methyl-1H-imidazol-2-yl)-5-phenylpyrrolo[2,1-f][1,2,4]triazin-4-amine] | A (A = 1-25% inhibition) | B (B = 26-49% inhibition) | 50 to 75 | A (A = 1-25% inhibition) | B (B = 26-49% inhibition) | H* (H* ≥ 100% activation)
9 | COCC1CCN(c2nc(-c3nccn3C)nn3cc(-c4ccn(C(C)C)n4)c(-c4ccccc4)c23)C1.Cl (racemic) [Compound 19, rac 6-(1-Isopropyl-1H-pyrazol-3-yl)-4-(3-(methoxymethyl)pyrrolidin-1-yl)-2-(1-methyl-1H-imidazol-2-yl)-5-phenylpyrrolo[2,1-f][1,2,4]triazine hydrochloride salt] | B (B = 26-49% inhibition) | 0 (0 = 0% inhibition) | 1 to 25 | A (A = 1-25% inhibition) | 0 (0 = 0% inhibition) | F* (F* = 31-74% activation)
10 | Cn1ccnc1-c1nc(O)c2c(-c3ccccc3)ccn2n1 [Compound 39, 2-(1-Methyl-1H-imidazol-2-yl)-5-phenylpyrrolo[2,1-f][1,2,4]triazin-4-ol] | 0 (0 = 0% inhibition) | A (A = 1-25% inhibition) | 0 | A (A = 1-25% inhibition) | B (B = 26-49% inhibition) | 
11 | COC1CCCN(c2nc(-c3nccn3C)nn3cc(-c4ccn(C(C)C)n4)c(C)c23)C1 (racemic) [Compound 4, rac 6-(1-Isopropyl-1H-pyrazol-3-yl)-5-methyl-2-(1-methyl-1H-imidazol-2-yl)-4-(3-(oxo-γ6-methyl)piperidin-1-yl)pyrrolo[2,1-f][1,2,4]triazine] | 0 (0 = 0% inhibition) | 0 (0 = 0% inhibition) | 1 to 25 | 0 (0 = 0% inhibition) | 0 (0 = 0% inhibition) | G* (G* = 75-99% activation)
12 | Cc1c(-c2ccn(C(C)C)n2)cn2nc(-c3nccn3C)nc(Nc3noc(C4CC4)n3)c12 [Compound 75, 5-Cyclopropyl-N-(6-(1-isopropyl-1H-pyrazol-3-yl)-5-methyl-2-(1-methyl-1H-imidazol-2-yl)pyrrolo[2,1-f][1,2,4]triazin-4-yl)-1,2,4-oxadiazol-3-amine] | B (B = 26-49% inhibition) | A (A = 1-25% inhibition) | 50 to 75 | A (A = 1-25% inhibition) | A (A = 1-25% inhibition) | 
13 | Cc1ccn2nc(-c3nccn3C)nc(N)c12.O=C(O)C(F)(F)F [Compound 37, 5-Methyl-2-(1-methyl-1H-imidazol-2-yl)pyrrolo[2,1-f][1,2,4]triazin-4-amine trifluoroacetic acid salt] | 0 (0 = 0% inhibition) | 0 (0 = 0% inhibition) | 0 | C (C = 50-75% inhibition) | C (C = 50-75% inhibition) | 
14 | COCCNc1nc(-c2nccn2C)nn2cc(-c3ccn(C(C)C)n3)c(C)c12 [Compound 5, 6-(1-Isopropyl-1H-pyrazol-3-yl)-N-(2-methoxyethyl)-5-methyl-2-(1-methyl-1H-imidazol-2-yl)pyrrolo[2,1-f][1,2,4]triazin-4-amine] |  |  | 26 to 49 |  |  | 

From patent US12459951B2, “Compounds that interact with RAS superfamily proteins for treatment of cancers, inflammatory diseases, rasopathies, and fibrotic disease” (SHY Therapeutics, LLC, priority 2022, dated 2025)
